A word on the IC50: it is the midpoint of a concentration-inhibition curve.

The test is described as follows: Inhibition of Plasmodium falciparum recombinant dihydrofolate reductase expressed in Escherichia coli BL21 (DE3).

Take `N=C(N=C(N)N)SCc1cccc(I)c1`: the IC50 is 0.4 µM.
Regarding `N=C(N)/N=C(\N)SCc1cccc(CS/C(N)=N/C(=N)N)c1`, the half-maximal inhibitory concentration (IC50) was determined as 100 µM.

For the origin of these results see ChEMBL document CHEMBL3102833, “Design and synthesis of guanylthiourea derivatives as potential inhibitors of Plasmodium falciparum dihydrofolate reductase enzyme” (Bioorg Med Chem Lett, 2014).
